Molecular target: T1, mu opiate receptor (MOR) (Rattus norvegicus, UniProt P33535)
T1 construct: from tissue; host or cells: striatal membrane preparation (rat striatum)
Test: MOR agonist activity, [35S]GTPγS binding assay using striatal membranes
Type: biochemical
Parameters: MOR agonist activity, [35S]GTPγS binding to Gαo: reference not given here
Procedure: To assess the mu opiate receptor (MOR) agonist activity of positive compounds from the FLNA screening, compounds were tested in a [^35S]GTPγS binding assay using striatal membranes.
Striatal tissue was homogenized in 10 volumes of ice cold 25 mM HEPES buffer, pH 7.4, which contained 1 mM EGTA, 100 mM sucrose, 50 μg/ml leupeptin, 0.04 mM PMSF, 2 μg/ml soybean trypsin inhibitor and 0.2% 2-mercaptoethanol. The homogenates were centrifuged at 800×g for 5 minutes and the supernatants were centrifuged at 49,000×g for 20 minutes. The resulting pellets were suspended in 10 volume of reaction buffer, which contained 25 mM HEPES, pH 7.5, 100 mM NaCl, 50 μg/ml leupeptin, 2 μg/ml soybean trypsin inhibitor, 0.04 mM PMSF and 0.02% […].
The resultant striatal membrane preparation (200 μg) was admixed and maintained (incubated) at 30° C. for 5 minutes in reaction buffer as above that additionally contained 1 mM MgCl2 and 0.5 nM [^35S]GTPγS (0.1 μCi/assay, PerkinElmer Life and Analytical Sciences) in a total volume of 250 μl and continued for 5 minutes in the absence or presence of 0.1-10 μM of an assayed compound of interest. The reaction was terminated by dilution with 750 μl of ice-cold reaction buffer that contained 20 mM MgCl2 and 1 mM EGTA and immediate centrifugation at 16,000×g for 5 minutes.
The resulting pellet was solubilized by sonicating for 10 seconds in 0.5 ml of immunoprecipitation buffer containing 0.5% digitonin, 0.2% sodium cholate and 0.5% NP-40. Normal rabbit serum (1 μl) was added to 1 ml of lysate and incubated at 25° C. for 30 minutes. Nonspecific immune complexes were removed by incubation with 25 μl of protein A/G-conjugated agarose beads at 25° C. for 30 minutes followed by centrifugation at 5,000×g at 4° C. for 5 minutes. The supernatant was divided and separately incubated at 25° C. for 30 minutes with antibodies raised against Gαo proteins (1:1,000 dilutions).
The immunocomplexes so formed were collected by incubation at 25° C. for 30 minutes with 40 μl of agarose-conjugated protein A/G beads and centrifugation at 5,000×g at 4° C. for 5 minutes. The pellet was washed and suspended in buffer containing 50 mM Tris-HCl, pH 8.0, and 1% NP-40. The radioactivity in the suspension was determined by liquid scintillation spectrometry. […] DAMGO (H-Tyr-D-Ala-Gly-N-MePhe-Gly-OH; 1 or 10 μM) was used as a positive control.

[1] = 0.1 μM compound, striatal membranes
[2] = 1 μM compound + BFNA (1 μM β-funaltrexamine)
[3] = 1 μM compound, striatal membranes

T1 sequence (P33535 whole entry): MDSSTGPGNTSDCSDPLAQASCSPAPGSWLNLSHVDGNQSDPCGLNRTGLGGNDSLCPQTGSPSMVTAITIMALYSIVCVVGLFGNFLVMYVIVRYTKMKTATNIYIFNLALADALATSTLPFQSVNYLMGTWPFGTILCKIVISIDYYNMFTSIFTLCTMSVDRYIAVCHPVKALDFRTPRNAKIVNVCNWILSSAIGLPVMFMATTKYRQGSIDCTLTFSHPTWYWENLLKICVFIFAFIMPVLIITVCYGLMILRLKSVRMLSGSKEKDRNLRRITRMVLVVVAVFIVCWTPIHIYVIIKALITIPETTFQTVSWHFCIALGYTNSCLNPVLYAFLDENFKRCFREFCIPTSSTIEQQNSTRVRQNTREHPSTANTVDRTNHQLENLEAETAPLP

Row | SMILES | MOR agonist activity, [35S]GTPγS binding to Gαo [1] | MOR agonist activity, [35S]GTPγS binding to Gαo [2] | MOR agonist activity, [35S]GTPγS binding to Gαo [3]
1 | CCN1CCC2(CC1)OCCN2S(=O)(=O)c1ccc(C(C)=O)cc1 [Compound C0094M] | 172.5% | 115.3% | 263.5%
2 | CC(=O)c1ccc(S(=O)(=O)N2CCOC23CCN(CC2CC2)CC3)cc1 [Compound C0095M] | 189.1% | 107.7% | 224.6%
3 | C=CCN1CCC2(CC1)OCCN2S(=O)(=O)c1ccc(C(C)=O)cc1 [Compound C0096M] | 186.4% | 127.1% | 328.9%
4 | CCOC(=O)CN1CCC2(CC1)OCCN2S(=O)(=O)c1ccc(C(C)=O)cc1 [Compound C0099M] | 157.2% | 114.7% | 195.7%
5 | CC(=O)c1ccc(S(=O)(=O)N2CCOC23CCN(CC(=O)O)CC3)cc1 [Compound C0100M] | 173.6% | 195.6% | 245.9%
6 | CCCCN1CCC2(CC1)OCCN2S(=O)(=O)c1ccc(C(C)=O)cc1 [Compound C0101M] | 138.2% | 174.8% | 274.3%
7 | CCCCN1CCC2(CC1)OCCN2S(=O)(=O)c1ccc(OC)cc1 [Compound C0102M] | 131.8% | 150.4% | 272.0%
8 | CN1CCC2(CC1)NC(=O)CN2Cc1ccccc1 [Compound C0104M] | 188.2% | 143.8% | 238.9%
9 | CN1CCC2(CC1)NCC(=O)N2Cc1ccccc1 [Compound C0105M] | 198.1% | 73.1% | 220.3%
10 | CN1CCC2(CC1)OCCN2S(=O)(=O)c1ccc(S(C)(=O)=O)cc1 [Compound C0106M] | 171.8% | 117.2% | 240.7%
11 | CC(=O)c1ccc(S(=O)(=O)N2CC(CN(C)C)OC23CCN(C)CC3)cc1 (stereo not drawn) [Compound C0108M] | 205.6% | 76.9% | 258.5%
12 | O=C1CNC2(CCNCC2)N1Cc1ccccc1 [Compound C0114M] | 114.0% | 35.9% | 144.3%
13 | O=C1CN(Cc2ccccc2)C2(CCNCC2)N1 [Compound C0115M] | 177.2% | 118.4% | 226.8%
14 | CS(=O)(=O)c1ccc(S(=O)(=O)N2CCOC23CCNCC3)cc1 [Compound C0116M] | 258.4% | 152.0% | 302.8%
15 | CC(=O)c1ccc(S(=O)(=O)N2CC(CN(C)C)OC23CCNCC3)cc1 (stereo not drawn) [Compound C0118M] | 166.2% | 79.2% | 261.5%
16 | CC(=O)c1ccc(S(=O)(=O)N2C(Cc3c[nH]cn3)C(=O)NC23CCNCC3)cc1 (stereo not drawn) [Compound C0119M] | 105.7% | 35.1% | 167.8%
17 | O=C1CN(Cc2ccccc2)C2(CCN(CC3CC3)CC2)N1 [Compound C0125M] | 168.6% | 159.7% | 195.2%
18 | CS(=O)(=O)c1ccc(S(=O)(=O)N2CCOC23CCN(CC2CC2)CC3)cc1 [Compound C0126M] | 181.8% | 108.5% | 265.3%

Reference: patent publication US8614324B2, “Filamin A binding anti-inflammatory and analgesic” (priority 2008, dated 2013)
